Test system: IGROV1 complex spheroids (HUVEC, MSC), viability % test/control
Assay: Anticancer human tumor IGROV1 cell line growth inhibition [GQUAD];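 note: spheroids exposed to compounds for 7 days before readout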
Conditions: for IC50: curve of first compound; for viability, T/C: stronger effect = lower value
From the text: DNA G-quadruplex Stabilizer Agents in Combinations in Complex Spheroids
A high-throughput screen of multi-cell type tumor spheroids was designed to identify active combinations of DNA G-quadruplex stabilizer agents and targeted small molecules. Complex spheroids include a stromal component modeled by human endothelial cells (HUVEC) and fibroblasts modeled by human mesenchymal stem cells (MSCs). The concentration ranges selected for each drug and investigational agent were based upon clinically achievable concentrations if the clinical Cmax of the agent was known.
Compounds. The drugs and investigational agents: pidnarulex (CX-5461; NSC782164), APTO-253 (NSC789042), BRACO-19 (NSC847499), peposertib (NSC802822), ceralasertib (NSC780249), elimusertib (NSC800525), camonsertib (NSC841442), AZD-1390 (NSC803789), olaparib (NSC753686), talazoparib (NSC767125), ART-558 (NSC835418), sotorasib (NSC818433), MRTX-1133 (NSC836407), SN-38 (NSC673596), topotecan (NSC609699), etoposide (NSC141540), doxorubicin (NSC123127), gemcitabine (NSC613327), 5-fluorouracil (NSC19893), paclitaxel (NSC125973), vemurafenib (NSC761431), panobinostat (NSC761190), R-306465 (JNJ-16241199; NSC773264), adavosertib (NSC754352), TP-3654 (NSC805149), carboplatin (NSC241240), KSQ-4279 (NSC840948), and staurosporine (NSC755774) were obtained from the National Cancer Institute (NCI) Developmental Therapeutics Program Chemical Repository (34). The FDA-approved anticancer drug set is available from the NCI Developmental Therapeutics Program. […] The stock solutions were prepared in dimethyl sulfoxide (DMSO, Sigma-Aldrich, St. Louis, MO, cat. D2650) at 800-fold the tested concentration and stored at -70 degrees C prior to their use. All drugs and investigational agents were tested over a range starting from a high concentration at or near the clinical Cmax and decreasing in half-log increments. If the clinical Cmax for an agent had not been determined, the highest concentration tested was 10 microM.
2.3 Cell Culture. All cells were maintained in an incubator at 37 degrees C and 5% CO2 with 95% humidity. The PDC lines were cultured according to standard operating procedures established by the NCI PDMR. All PDCs were thawed and cultured in Matrigel-coated flasks prepared with a working solution of 1X Ham's F-12 nutrient mix, without supplementation (Invitrogen, cat. 11765054), 100 U/mL penicillin-streptomycin (Invitrogen, cat. 15140122), and 2.5% Matrigel (Corning Inc., cat. 354248) for the first three passages. The 857933-349-R-J2-PDC line was cultured in 6C/Colon 1B media, which includes advanced DMEM/F-12 (Thermo Fisher Scientific, cat. 12634028), 10 mM HEPES (Thermo Fisher Scientific, cat. 15630080), 1X GlutaMAX supplement (Thermo Fisher Scientific, cat. 35050061), 0.1 mg/mL primocin (InvivoGen, cat. ant-pm-2), 10% defined fetal bovine serum, heat inactivated (HyClone Laboratories Inc., cat. SH30070.03HI), 50% L-WRN conditioned media (ATCC, cat. CRL-3276), 1.25 mM N-Acetyl-L-cysteine (Sigma-Aldrich, cat. A9165), 10 mM nicotinamide (Sigma-Aldrich, cat. N0636), 1X B-27 supplement (Thermo Fisher Scientific, cat. 17504044), 1X N-2 supplement (Thermo Fisher Scientific, cat. 17502048), 10 microM Y-27632 dihydrochloride (Tocris Bioscience, cat. 1254), and 50 ng/mL human EGF recombinant protein (Thermo Fisher Scientific, cat. PHG0311). The 485176-168-R4-J1-PDC line was cultured in Panc media, which includes all 6C/Colon 1B media components plus 100 ng/mL human FGF-10 (Thermo Fisher Scientific, cat. 100-26), 500 nM SB-431542 (Selleckchem, cat. S1067), and gastrin (Tocris, cat. 3006).
[…]

[1] = second compound 0.0316 µM, first compound 0.0316 µM
[2] = second compound 0.0316 µM, first compound 0.1 µM
[3] = second compound 0.0316 µM, first compound 0.316 µM
[4] = second compound 0.0316 µM, first compound 1 µM
[5] = second compound 0.0316 µM, first compound 3.16 µM
[6] = second compound 0.0316 µM, first compound 10 µM
[7] = second compound 0.1 µM, first compound 0.0316 µM
[8] = second compound 0.1 µM, first compound 0.1 µM
[9] = second compound 0.1 µM, first compound 0.316 µM
[10] = second compound 0.1 µM, first compound 1 µM
[11] = second compound 0.1 µM, first compound 3.16 µM
[12] = second compound 0.1 µM, first compound 10 µM
[13] = second compound 0.316 µM, first compound 0.0316 µM
[14] = second compound 0.316 µM, first compound 0.1 µM
[15] = second compound 0.316 µM, first compound 0.316 µM
[16] = second compound 0.316 µM, first compound 1 µM
[17] = second compound 0.316 µM, first compound 3.16 µM
[18] = second compound 0.316 µM, first compound 10 µM
[19] = second compound 1 µM, first compound 0.0316 µM
[20] = second compound 1 µM, first compound 0.1 µM
[21] = second compound 1 µM, first compound 0.316 µM
[22] = second compound 1 µM, first compound 1 µM
[23] = second compound 1 µM, first compound 3.16 µM
[24] = second compound 1 µM, first compound 10 µM
[25] = second compound 3.16 µM, first compound 0.0316 µM
[26] = second compound 3.16 µM, first compound 0.1 µM
[27] = second compound 3.16 µM, first compound 0.316 µM
[28] = second compound 3.16 µM, first compound 1 µM
[29] = second compound 3.16 µM, first compound 3.16 µM
[30] = second compound 3.16 µM, first compound 10 µM
[31] = second compound 10 µM, first compound 0.0316 µM
[32] = second compound 10 µM, first compound 0.1 µM
[33] = second compound 10 µM, first compound 0.316 µM
[34] = second compound 10 µM, first compound 1 µM
[35] = second compound 10 µM, first compound 3.16 µM
[36] = second compound 10 µM, first compound 10 µM

SMILES: C=CCn1c(=O)c2cnc(Nc3ccc(N4CCN(C)CC4)cc3)nc2n1-c1cccc(C(C)(C)O)n1 + CN(C)c1ccc(Nc2c3ccc(NC(=O)CCN4CCCC4)cc3nc3cc(NC(=O)CCN4CCCC4)ccc23)cc1
- IC50 (second compound 0.0316 µM): 153 nM
- IC50 (second compound 0.1 µM): 145 nM
- IC50 (second compound 0.316 µM): 138 nM
- IC50 (second compound 1 µM): 136 nM
- IC50 (second compound 3.16 µM): 112 nM
- IC50 (second compound 10 µM): < 31.6 nM
- viability, T/C [1]: 92.4%
- viability, T/C [2]: 72.3%
- viability, T/C [3]: 12.3%
- viability, T/C [4]: 3.27%
- viability, T/C [5]: 3.29%
- viability, T/C [6]: 2.49%
- viability, T/C [7]: 90.8%
- viability, T/C [8]: 68.1%
- viability, T/C [9]: 12.1%
- viability, T/C [10]: 2.73%
- viability, T/C [11]: 2.54%
- viability, T/C [12]: 2.34%
- viability, T/C [13]: 76.4%
- viability, T/C [14]: 65.5%
- viability, T/C [15]: 10.3%
- viability, T/C [16]: 3.01%
- viability, T/C [17]: 2.63%
- viability, T/C [18]: 1.87%
- viability, T/C [19]: 61.6%
- viability, T/C [20]: 69.2%
- viability, T/C [21]: 8.29%
- viability, T/C [22]: 2.65%
- viability, T/C [23]: 2.66%
- viability, T/C [24]: 2.32%
- viability, T/C [25]: 67.7%
- viability, T/C [26]: 54.5%
- viability, T/C [27]: 7.41%
- viability, T/C [28]: 3.03%
- viability, T/C [29]: 2.47%
- viability, T/C [30]: 1.97%
- viability, T/C [31]: 37.6%
- viability, T/C [32]: 27.4%
- viability, T/C [33]: 5.31%
- viability, T/C [34]: 2.61%
- viability, T/C [35]: 1.87%
- viability, T/C [36]: 1.28%

SMILES: CC(C)(O)C1CCC(Nc2ccc3ncc(-c4cccc(C(F)(F)F)c4)n3n2)CC1 (stereo unspecified) + CN(C)c1ccc(Nc2c3ccc(NC(=O)CCN4CCCC4)cc3nc3cc(NC(=O)CCN4CCCC4)ccc23)cc1
- IC50 (second compound 0.0316 µM): 2180 nM
- IC50 (second compound 0.1 µM): 2240 nM
- IC50 (second compound 0.316 µM): 1420 nM
- IC50 (second compound 1 µM): 1750 nM
- IC50 (second compound 3.16 µM): 1370 nM
- IC50 (second compound 10 µM): 134 nM
- viability, T/C [1]: 103%
- viability, T/C [2]: 83.8%
- viability, T/C [3]: 74.8%
- viability, T/C [4]: 74%
- viability, T/C [5]: 32.3%
- viability, T/C [6]: 35.5%
- viability, T/C [7]: 101%
- viability, T/C [8]: 91.8%
- viability, T/C [9]: 70.6%
- viability, T/C [10]: 70.1%
- viability, T/C [11]: 36.7%
- viability, T/C [12]: 39.5%
- viability, T/C [13]: 93.7%
- viability, T/C [14]: 63.9%
- viability, T/C [15]: 85.9%
- viability, T/C [16]: 58%
- viability, T/C [17]: 30.1%
- viability, T/C [18]: 33.2%
- viability, T/C [19]: 86.6%
- viability, T/C [20]: 92.6%
- viability, T/C [21]: 78.8%
- viability, T/C [22]: 72.3%
- viability, T/C [23]: 26.2%
- viability, T/C [24]: 23%
- viability, T/C [25]: 77%
- viability, T/C [26]: 81.9%
- viability, T/C [27]: 78.2%
- viability, T/C [28]: 61.9%
- viability, T/C [29]: 18.6%
- viability, T/C [30]: 9.94%
- viability, T/C [31]: 60.9%
- viability, T/C [32]: 54.3%
- viability, T/C [33]: 37.5%
- viability, T/C [34]: 25.9%
- viability, T/C [35]: 5.34%
- viability, T/C [36]: 2.55%

SMILES: Cc1cccc(N(C)C(=O)C2C(O)CCN2c2nc(C)cc(C(F)(F)F)c2C#N)c1 (stereo unspecified) + Cc1[nH]c2ccc(F)cc2c1-c1nc2c3cccnc3c3ncccc3c2[nH]1
- IC50 (second compound 0.0316 µM): > 10000 nM
- IC50 (second compound 0.1 µM): > 10000 nM
- IC50 (second compound 0.316 µM): > 10000 nM
- IC50 (second compound 1 µM): < 31.6 nM
- IC50 (second compound 3.16 µM): < 31.6 nM
- IC50 (second compound 10 µM): < 31.6 nM
- viability, T/C [1]: 108%
- viability, T/C [2]: 82.3%
- viability, T/C [3]: 105%
- viability, T/C [4]: 76.1%
- viability, T/C [5]: 98%
- viability, T/C [6]: 100%
- viability, T/C [7]: 105%
- viability, T/C [8]: 82.2%
- viability, T/C [9]: 107%
- viability, T/C [10]: 69.1%
- viability, T/C [11]: 105%
- viability, T/C [12]: 105%
- viability, T/C [13]: 83.7%
- viability, T/C [14]: 53.2%
- viability, T/C [15]: 70%
- viability, T/C [16]: 78.8%
- viability, T/C [17]: 94.7%
- viability, T/C [18]: 76.3%
- viability, T/C [19]: 4%
- viability, T/C [20]: 6.22%
- viability, T/C [21]: 5.36%
- viability, T/C [22]: 4.57%
- viability, T/C [23]: 4.11%
- viability, T/C [24]: 2.68%
- viability, T/C [25]: 3.63%
- viability, T/C [26]: 4.69%
- viability, T/C [27]: 4.7%
- viability, T/C [28]: 4.75%
- viability, T/C [29]: 3.97%
- viability, T/C [30]: 2.92%
- viability, T/C [31]: 4.3%
- viability, T/C [32]: 3.62%
- viability, T/C [33]: 4.75%
- viability, T/C [34]: 3.64%
- viability, T/C [35]: 4.04%
- viability, T/C [36]: 3.25%
